Measured values: paper PMC7917639, “Nopol-Based Quinoline Derivatives as Antiplasmodial Agents” (Molecules, 2021)
Several values for one entry are separate records, joined by “and”; a condition that tells them apart may be missing. Identical values can stand only once. Like-named read-outs stand apart in the source and are kept apart here.

What was measured:
[1] = system: P. falciparum 3D7 (Pf3D7, chloroquine-sensitive strain); assay: Pf3D7 asexual blood-stage growth inhibition, SYBR Green fluorescence assay; type: cell-based, Plasmodium falciparum; details: for Pf3D7 selectivity index (SI, CC50/EC50): Hep G2 CC50 / Pf3D7 EC50; for EC50: read-out: Pf3D7 EC50
Method: a. Pf3D7: 100 μL of complete media (Sigma-Aldrich’s RPMI 1640, 25 mM HEPES, 10 μg/mL gentamicin, 0.5 mM hypoxanthine supplemented with NaHCO3 and 0.5% Albumax II, 37 °C) containing compounds (50–0.3 µM) or 100 µM chloroquine were added to 96 well plates in triplicates. This was followed by the addition of 100 µL erythrocytic asexual culture of Pf3D7 (10% hematocrit and 0.25% ring stage parasitemia), maintained at atmospheric conditions of 1% oxygen, 5% carbon dioxide, and 94% nitrogen, and allowed to grow for 96 h at 37 °C. The cultures were then frozen at −80 °C overnight and thawed at 37 °C for 4 h. Aliquots (100 µL) from each well were transferred to black 96-well plates, 100 μL of 2× SYBR Green (Molecular Probes) in lysis buffer (20 mM Tris at pH 7.5, 5 mM EDTA, 0.008% saponin, 0.08% Triton X-100) was added to each well and mixed thoroughly with a pipette. The plates were incubated in the dark at room temperature for 1 h and read at λex 485 nm and λem 530 nm. Infected and untreated red blood cells (iRBC) cultures served as negative control. Percent inhibitory activities were calculated using (=100 − 100*((Sample − 100 µM CQ)/(iRBC − 100 µM CQ)) and used to plot sigmoidal inhibition curves to obtain the EC50 values.

[2] = system: Human hepatocarcinoma cell line (Hep G2); assay: Cytotoxicity assay (MTT); type: cell-based; details: 72 h
Method: (§1) Human hepatocarcinoma cell line (Hep G2, ATCC CRL-11997TM) was used for cytotoxicity studies as previously described. The cells were grown in complete medium (DMEM:F12 containing L-glutamine and sodium bicarbonate, 10% FBS, 1% penicillin/streptomycin, Thermo Fisher Scientific) at 37 °C in 5% CO2 environment. Cells (198 µL, 5 × 10^5/mL) were seeded into 96-well plates and incubated overnight. The cells were treated with the compounds (160–1.25 µM, in triplicates) or DMSO (1%) for 72 h. The cell medium was removed and replaced with DMEM:F12 medium containing MTT (0.5 mg/mL) was added to the cells and incubated for 1.5 h. The MTT-containing medium was gently removed and replaced with DMSO (200 µL/well). The contents of each well were then repeatedly mixed with a multichannel pipette and incubated for 10 min. The plates were read at 570 nm. DMSO-treated (1%) cells were used as negative assay control and SDS (10%) was used as assay positive control. Percent cell viabilities were expressed as a percentage of the mean viability of DMSO-treated (1%) cells.

[3] = system: PfNF54; assay: PfNF54 erythrocytic stage growth inhibition, [3H]-hypoxanthine incorporation assay; type: cell-based, Plasmodium falciparum; details: for EC50: erythrocytic stages, 48 h + 24 h with 3H-hypoxanthine; for PfNF54 selectivity index (SI, CC50/EC50): Hep G2 CC50 / PfNF54 EC50
Method: b. PfNH54 and PfK1: The growth inhibitory activities of the compounds against erythrocytic stages of PfNH54 and PfK1 were determined using the [^3H]-hypoxanthine incorporation assay as previously reported. […] The CPMs were expressed as a percentage of the CPMs from the untreated controls and used to estimate the EC50 from sigmoidal inhibition curves. Artemisinin and CQ were used as positive controls.

[4] = system: PfK1; assay: PfK1 erythrocytic stage growth inhibition, [3H]-hypoxanthine incorporation assay; type: cell-based, Plasmodium falciparum; details: for EC50: erythrocytic stages, 48 h + 24 h with 3H-hypoxanthine; for Antiplasmodial activity against K1 strain (in words): multidrug-resistant strain; for PfK1 selectivity index (SI, CC50/EC50): Hep G2 CC50 / PfK1 EC50
Method: b. PfNH54 and PfK1: The growth inhibitory activities of the compounds against erythrocytic stages of PfNH54 and PfK1 were determined using the [^3H]-hypoxanthine incorporation assay as previously reported. Parasites in RPMI 1640 medium containing […] (without hypoxanthine) were treated with compounds (50–0.3 µM) in 96 well plates for 48 h at 37 °C in 92% N2, 5% CO2, and 3% O2. ^3H-hypoxanthine (0.5 μCi) was added to each well, incubated for an additional 24 h, harvested onto glass-fiber filters, and washed with distilled water. Radioactivity at each compound concentration was counted using a Betaplate™ liquid scintillation counter (Wallac, Zurich), and the results were recorded as counts per minute (CPM) per well. The CPMs were expressed as a percentage of the CPMs from the untreated controls and used to estimate the EC50 from sigmoidal inhibition curves. Artemisinin and CQ were used as positive controls.

[5] = Cytotoxicity assay (MTT); type: cell-based, Human; details: human, read-out: Hep G2 CC50
Method: as §1

[6] = erythrocytic asexual culture, 96 h, SYBR Green
[7] = Plasmodium falciparum, 3D7, erythrocytic asexual culture, 96 h, SYBR Green

Row | SMILES | Pf3D7 selectivity index (SI, CC50/EC50) [1] | EC50 [1, 6] | CC50 [2] [µM] | EC50 [3] [µM] | EC50 [4] | Antiplasmodial activity against K1 strain (in words) [4] | other results
1 | COc1ccc(NC(=O)CC2=CCC3CC2C3(C)C)c2ncccc12 (single isomer, unassigned) [Compound 1] | 13.4 | 5.25 ± 0.7 µM | 70.8 ± 1.26 |  |  |  | 
2 | COc1ccc(NC(=O)CC2=CCC3CC2C3(C)C)c2ncccc12 (single isomer, unassigned) [Compound 2] | > 58.8 | 2.72 ± 0.28 µM | > 160 |  |  |  | 
3 | CC1(C)C2CC=C(CC(=O)Nc3cccc4cccnc34)C1C2 (single isomer, unassigned) [Compound 3, 2-(6,6-dimethylbicyclo[3.1.1]hept-2-en-2-yl)-N-(quinolin-8-yl) Acetamide] | > 73.1 | 2.19 ± 0.15 µM | > 160 | > 50 | > 50 µM | inactive | Antiplasmodial activity against NF54 strain (in words) [3]: inactive
4 | CC1(C)C2CC=C(CC(=O)Nc3cccc4cccnc34)C1C2 (single isomer, unassigned) [Compound 4, 2-(6,6-dimethylbicyclo[3.1.1]hept-2-en-2-yl)-N-(quinolin-8-yl) Acetamide] | > 62.3 | 2.57 ± 0.02 µM | > 160 | > 50 | > 50 µM | inactive | Antiplasmodial activity against NF54 strain (in words) [3]: inactive
5 | Cc1cc(C(=O)OCCC2=CC[C@@H]3C[C@H]2C3(C)C)c2ccc(Cl)cc2n1 (stereo in doubt) [Compound 13, 2-((1S,5R)-6,6-dimethylbicyclo[3.1.1]hept-2-en-2-yl)ethyl-7-chloro-2-methylquinoline-4-carboxylate] | > 6.9 |  |  |  |  |  | EC50 [1, 7]: 23 ± 2 µM; Antiplasmodial activity against Pf3D7 (in words) ([1]; chloroquine-sensitive strain): very weak antiplasmodial activity; CC50 at 72 h [5]: > 160 µM
6 | C[C@@H]1CC[C@H]2[C@@H](C)C(=O)O[C@@H]3O[C@@]4(C)CC[C@@H]1[C@]32OO4 [Artemisinin, reference compound] |  |  |  |  |  |  | EC50 ([3]; Plasmodium falciparum, 72 h): 0.017 ± 0.005 µM; EC50 ([4]; Plasmodium falciparum, 72 h): 0.011 ± 0.005 µM
7 | CCN(CC)CCCC(C)Nc1ccnc2cc(Cl)ccc12 (centres unmarked) [Chloroquine, reference compound] |  |  |  |  |  |  | EC50 ([1]; Plasmodium falciparum, 3D7, 96 h): 0.004 ± 0.001 µM
8 | CC1(C)[C@@H]2CC=C(CC(=O)Nc3ccnc4ccccc34)[C@H]1C2 [Compound 5, 2-((1S,5R)-6,6-dimethylbicyclo[3.1.1]hept-2-en-2-yl)-N-(quinolin-4-yl) Acetamide] | 0.2 | 26.4 ± 1.7 µM | 3.98 ± 0.7 | 23.4 ± 0.14 | 13.9 ± 2.1 µM | weakly active | Antiplasmodial activity against NF54 strain (in words) [3]: weakly active; PfNF54 selectivity index (SI, CC50/EC50) [3]: 0.2; PfK1 selectivity index (SI, CC50/EC50) [4]: 0.3
9 | CC1(C)[C@@H]2CC=C(CC(=O)Nc3ccnc4cc(Cl)ccc34)[C@H]1C2 [Compound 6, N-(7-chloroquinolin-4-yl)-2-((1S,5R)-6,6-dimethylbicyclo[3.1.1]hept-2-en-2-yl) Acetamide] | 0.8 | 17.1 ± 1.8 µM | 14.3 ± 1.2 | 21.4 ± 1.7 | 7.84 ± 0.57 µM | weakly active | Antiplasmodial activity against NF54 strain (in words) [3]: weakly active; PfNF54 selectivity index (SI, CC50/EC50) [3]: 0.7; PfK1 selectivity index (SI, CC50/EC50) [4]: 1.8
10 | CC1(C)[C@@H]2CC=C(CC(=O)Oc3ccnc4ccccc34)[C@H]1C2 [Compound 7, quinolin-4-yl-2-((1S,5R)-6,6-dimethylbicyclo[3.1.1]hept-2-en-2-yl) Acetate] |  | > 50 µM | > 160 | > 50 | > 28 µM |  | 
11 | CC1(C)[C@@H]2CC=C(CC(=O)Oc3ccnc4cc(Cl)ccc34)[C@H]1C2 [Compound 8, 7-chloroquinolin-4-yl-2-((1S,5R)-6,6-dimethylbicyclo[3.1.1]hept-2-en-2-yl) Acetate] |  | > 50 µM | > 160 | 23.3 | 0.16 µM and 0.164 µM | sub-micromolar EC50 | PfNF54 selectivity index (SI, CC50/EC50) [3]: > 6.8; PfK1 selectivity index (SI, CC50/EC50) [4]: > 976
12 | Cc1cc(OC(=O)CC2=CC[C@@H]3C[C@H]2C3(C)C)c2ccc(Cl)c(C)c2n1 [Compound 9, 7-chloro-2,8-dimethylquinolin-4-yl-2-((1S,5R)-6,6-dimethylbicyclo[3.1.1]hept-2-en-2-yl) Acetate] | > 26 | 6.2 µM and 6.15 µM | > 160 |  |  |  | 
13 | CC1(C)[C@@H]2CC=C(CC(=O)Oc3cc(C(F)(F)F)nc4ccc(F)cc34)[C@H]1C2 [Compound 10, 6-fluoro-2-(trifluoromethyl)quinolin-4-yl-2-((1S,5R)-6,6-dimethylbicyclo[3.1.1]hept-2-en-2yl) Acetate] | 2.3 | 21.4 ± 5.06 µM | 48.5 ± 1.12 |  |  |  | 
14 | Cc1c(Cl)ccc2c(OC(=O)CC3=CC[C@@H]4C[C@H]3C4(C)C)ccnc12 [Compound 11, 7-chloro-8-methylquinolin-4-yl-2-((1S,5R)-6,6-dimethylbicyclo[3.1.1]hept-2-en-2-yl) Acetate] | >9.1 | 17.6 ± 5.27 µM | > 160 |  |  |  | 
15 | CC1(C)[C@@H]2CC=C(CC(=O)Oc3cc(C(F)(F)F)nc4c(C(F)(F)F)cccc34)[C@H]1C2 [Compound 12, 2,8-bis(trifluoromethyl)quinolin-4-yl-2-((1S,5R)-6,6-dimethylbicyclo[3.1.1]hept-2-en-2-yl) Acetate] | 0.7 | 29.6 ± 0.93 µM | 21.8 ± 1.1 |  |  |  | 
16 | OC(c1cc(C(F)(F)F)nc2c(C(F)(F)F)cccc12)C1CCCCN1 (centres unmarked) [Mefloquine, reference compound] |  |  |  |  |  |  | EC50 [1, 7]: 2.33 ± 2.29 µM; EC50 ([3]; Plasmodium falciparum, 72 h): 0.003 ± 0.002 µM; EC50 ([4]; Plasmodium falciparum, 72 h): 0.117 ± 0.015 µM
